From article PMC9165921 (Molecular Biology, 2022)

System: SARS-CoV-2 strain PIK35
Test: microbe, parasite or virus in culture
Type: cell-based
Settings: Severe acute respiratory syndrome coronavirus 2, Vero, 120 h

With `O=c1nc(NO)ccn1[C@@H]1O[C@H](CO)[C@@H](O)[C@H]1O` [N^4-hydroxycytidine] as the molecule, how does the EC50 read?
The EC50 was > 5 µM.
